Experimental findings from patent publication US8889906B2, “Tetralin and indane derivatives and uses thereof” (Roche Palo Alto LLC, priority 2004, dated 2014) are described below.

Data set [1] concerns the target T1, recombinant human 5-HT6 receptor (Homo sapiens, UniProt P50406).
T1 construct: expressed in transfected cells
In words: 5-HT6 radioligand binding ([3H]LSD competition). The settings on record: [3H]LSD displacement, membranes of HEK293 cells expressing recombinant human 5-HT6 receptor, 37° C.; read-out: pKi for 5-HT6 (converted). As for the experimental part: (§1) The binding activity of compounds of this invention in vitro was determined as follows. Duplicate determinations of 5-HT6 ligand affinity were made by competing for binding of [^3H]LSD in cell membranes derived from HEK293 cells stably expressing recombinant human 5-HT6 receptor. Duplicate determinations of 5-HT2A ligand affinity were made by competing for binding of [^3H]Ketanserin (3-(2-(4-(4-fluorobenzoyl)piperidinol)ethyl)-2,4(1H,3H)-quinazolinedione) in cell membranes derived from CHO-K1 cells stably expressing recombinant human 5-HT2A receptor. Membranes were prepared from HEK 293 cell lines by the method described by Monsma et al., Molecular Pharmacology, Vol. 43 pp. 320-327 (1993), and from CHO-K1 cell lines as described by Bonhaus et al., Br J Pharmacol. June; 115(4):622-8 (1995).
(§2) For estimation of affinity at the 5-HT6 receptor, all determinations were made in assay buffer containing 50 mM Tris-HCl, 10 mM MgSO4, 0.5 mM EDTA, 1 mM ascorbic acid, pH 7.4 at 37° C., in a 250 microliter reaction volume. […]
(§3) Assay tubes containing [^3H] […] Ketanserin were determined as radioactive counts per minute using Packard TopCount.
(§4) Displacement of [^3H]LSD or [^3H]Ketanserin from the binding sites was quantified by fitting concentration-binding data to a 4-parameter logistic equation: […]

Data set [2] concerns the target T2, recombinant human 5-HT2A receptor (Homo sapiens, UniProt P28223).
T2 construct: expressed in transfected cells
In words: 5-HT2A radioligand binding ([3H]Ketanserin competition). Conditions: [3H]Ketanserin displacement, membranes of CHO-K1 cells expressing recombinant human 5-HT2A receptor, 32° C.; read-out: pKi for 5-HT2A (converted). As for the experimental part: as §1, §2, §3, §4

Structures can show the parent of a compound that is named as a salt.

T1 sequence (P50406 whole entry): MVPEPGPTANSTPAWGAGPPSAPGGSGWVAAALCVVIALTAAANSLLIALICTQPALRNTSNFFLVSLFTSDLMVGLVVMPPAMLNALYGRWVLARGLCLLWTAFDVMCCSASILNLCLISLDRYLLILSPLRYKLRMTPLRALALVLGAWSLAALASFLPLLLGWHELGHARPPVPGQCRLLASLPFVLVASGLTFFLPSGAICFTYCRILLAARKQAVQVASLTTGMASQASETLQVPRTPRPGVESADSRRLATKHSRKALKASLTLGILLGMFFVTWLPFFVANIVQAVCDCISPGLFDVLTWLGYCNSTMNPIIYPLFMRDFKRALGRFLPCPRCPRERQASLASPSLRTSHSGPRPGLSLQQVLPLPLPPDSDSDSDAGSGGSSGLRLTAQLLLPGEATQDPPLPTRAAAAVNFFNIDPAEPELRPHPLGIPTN
T2 sequence (P28223 whole entry): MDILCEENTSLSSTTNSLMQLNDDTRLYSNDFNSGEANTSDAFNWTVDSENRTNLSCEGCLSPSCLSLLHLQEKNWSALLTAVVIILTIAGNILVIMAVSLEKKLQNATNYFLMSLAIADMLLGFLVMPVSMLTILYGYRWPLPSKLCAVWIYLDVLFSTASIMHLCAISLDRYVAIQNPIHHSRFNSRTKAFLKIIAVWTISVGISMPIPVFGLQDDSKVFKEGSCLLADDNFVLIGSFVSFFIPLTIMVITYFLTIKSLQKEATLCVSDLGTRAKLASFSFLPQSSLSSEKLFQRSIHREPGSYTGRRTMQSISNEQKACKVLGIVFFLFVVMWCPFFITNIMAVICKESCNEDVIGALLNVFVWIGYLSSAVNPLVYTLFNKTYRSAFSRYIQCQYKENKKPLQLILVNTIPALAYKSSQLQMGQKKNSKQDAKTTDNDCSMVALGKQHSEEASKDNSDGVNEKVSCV

Molecule `CNC[C@@H]1CCCc2cc(S(=O)(=O)c3cccc(OC)c3)ccc21` (as salt: HCl) [Compound 50, (R)-[6-(3-Methoxy-benzenesulfonyl)-1,2,3,4-tetrahydro-naphthalen-1-ylmethyl]-methyl-amine] displayed a melting point of 265 to 266 °C.

In turn, `CNC[C@H]1CCCc2cc(S(=O)(=O)c3ccccc3)ccc21` (as salt: TFA) [Compound 40, (S)-(6-Benzenesulfonyl-1,2,3,4-tetrahydro-naphthalen-1-ylmethyl)-methyl-amine] had a melting point of 146 to 147 °C.

The molecule `N#Cc1cccc(S(=O)(=O)c2ccc3c(c2)CCC[C@H]3CN)c1` (as salt: oxalate) [Compound 52, (R)-3-(5-Aminomethyl-5,6,7,8-tetrahydro-naphthalene-2-sulfonyl)-benzonitrile] registered a melting point of 212 to 213 °C.

As for `N=C(N)CCC1CCCc2cc(S(=O)(=O)c3ccccc3)ccc21` (stereo not drawn) [3-(6-Benzenesulfonyl-1,2,3,4-tetrahydro-naphthalen-1-yl)-propionamidine], the Ki in data set [1] was around 0.141 nM.

`CC1(C)CN=C(NCC2CCCc3ccc(S(=O)(=O)c4ccccc4)cc32)NC1` (stereo not drawn) [Compound 11, (7-Benzenesulfonyl-1,2,3,4-tetrahydro-naphthalen-1-ylmethyl)-(5,5-dimethyl-1,4,5,6-tetrahydro-pyrimidin-2-yl)-amine]: the melting point was in the range of 140 to 145 °C.

Turning to `CC(=N)NCC1CCCc2cc(S(=O)(=O)c3ccccc3)ccc21` (stereo not drawn) [N-(6-Benzenesulfonyl-1,2,3,4-tetrahydro-naphthalen-1-ylmethyl)-acetamidine], the Ki in data set [2] is around 0.282 nM.
